Values of other authors as cited in patent publication US20130143937A1, “CHLORTHALIDONE COMBINATIONS” (Boehringer Ingelheim International GmbH, priority 2003, published 2013).

Settings: in vivo

mean plasma half-life | SMILES
40 to 60 h | NS(=O)(=O)c1cc(C2(O)NC(=O)c3ccccc32)ccc1Cl (centres unmarked) [chlorthalidone, 2-chloro-5-(2,3-dihydro-1-hydroxy-3-oxo-1h-isoindol-1-yl)benzene-sulfonamide]
about 24 hours | NS(=O)(=O)c1cc2c(cc1Cl)NCNS2(=O)=O [hydrochlorothiazide]
